Where a name gives a salt, the structure may show the parent alone.
What was measured:
Details in all cases: 72 h
Caco-2 [1] = experiment: cell viability relative to DMSO; higher = less toxic
Calu-3 [2] = experiment: as above
HepG2 [3] = experiment: as above
U2OS [4] = experiment: as above
Vero E6 [5] = experiment: as above
Caco-2 [6] = experiment: relative viability EC50 (midpoint between 100% and the lowest measured viability); higher = less toxic
Calu-3 [7] = experiment: as above
HepG2 [8] = experiment: as above
U2OS [9] = experiment: as above
Vero E6 [10] = experiment: as above
Caco-2 [11] = experiment: drug sensitivity score (DSS) for viability; higher = more toxic; extreme values may be limits of the assay
Calu-3 [12] = experiment: as above
HepG2 [13] = experiment: as above
U2OS [14] = experiment: as above
Vero E6 [15] = experiment: as above

SMILES | cell viability (Caco-2 [1]; 1 nM) | cell viability (Caco-2 [1]; 10 nM) | cell viability (Caco-2 [1]; 100 nM) | cell viability (Caco-2 [1]; 1000 nM) | cell viability (Caco-2 [1]; 10000 nM) | cell viability (Calu-3 [2]; 1 nM) | cell viability (Calu-3 [2]; 10 nM) | cell viability (Calu-3 [2]; 100 nM) | cell viability (Calu-3 [2]; 1000 nM) | cell viability (Calu-3 [2]; 10000 nM) | cell viability (HepG2 [3]; 1 nM) | cell viability (HepG2 [3]; 10 nM) | cell viability (HepG2 [3]; 100 nM) | cell viability (HepG2 [3]; 1000 nM) | cell viability (HepG2 [3]; 10000 nM) | cell viability (U2OS [4]; 1 nM) | cell viability (U2OS [4]; 10 nM) | cell viability (U2OS [4]; 100 nM) | cell viability (U2OS [4]; 1000 nM) | cell viability (U2OS [4]; 10000 nM) | cell viability (Vero E6 [5]; 1 nM) | cell viability (Vero E6 [5]; 10 nM) | cell viability (Vero E6 [5]; 100 nM) | cell viability (Vero E6 [5]; 1000 nM) | cell viability (Vero E6 [5]; 10000 nM) | relative viability EC50 (Caco-2 [6]) | relative viability EC50 (Calu-3 [7]) | relative viability EC50 (HepG2 [8]) | relative viability EC50 (U2OS [9]) | relative viability EC50 (Vero E6 [10]) | drug sensitivity score (Caco-2 [11]) | drug sensitivity score (Calu-3 [12]) | drug sensitivity score (HepG2 [13]) | drug sensitivity score (U2OS [14]) | drug sensitivity score (Vero E6 [15])
c1ccc2nc(C3=NCCN3)ccc2c1 [BU-224] | 97.7% | 96.9% | 101% | 88.7% | 90.2% | 98.5% | 106% | 106% | 89.3% | 119% | 104% | 94.3% | 94.2% | 99.8% | 87.2% | 99.8% | 98.8% | 99.2% | 95.6% | 98.8% | 98.7% | 99.5% | 97.3% | 102% | 99% | > 10 µM | > 10 µM | > 10 µM | > 10 µM | > 10 µM | 0.3 | 0 | 0.1 | 0 | 0
CO/N=C(\C(=O)N[C@@H]1C(=O)N2C(C(=O)O)=C(Cn3ccc(=N)n3CCO)CS[C@H]12)c1csc(N)n1 [Cefoselis sulfate] | 106% | 97.6% | 90.7% | 106% | 93.8% | 95.8% | 100% | 95.7% | 96.1% | 104% | 102% | 116% | 91.4% | 103% | 101% | 96.6% | 103% | 93.8% | 102% | 101% | 103% | 102% | 105% | 97.2% | 101% | > 10 µM | > 10 µM | > 10 µM | > 10 µM | > 10 µM | 0 | 0 | 0 | 0 | 0
O=[N+]([O-])c1cc2nc(O)c(O)nc2cc1[N+](=O)[O-] [DNQX] | 86.4% | 94.2% | 97.4% | 89.3% | 94.4% | 96.8% | 96.3% | 100% | 97.4% | 94.3% | 102% | 101% | 95.6% | 101% | 102% | 104% | 96.8% | 101% | 93.6% | 98% | 86.8% | 96.1% | 89.2% | 95.8% | 102% | > 10 µM | > 10 µM | > 10 µM | > 10 µM | > 10 µM | 0 | 0 | 0 | 0 | 0
CCC(C)(C)C(=O)C(=O)N1CCC[C@H]1C(=O)OCCCc1cccnc1 [GPI-1046] | 96.5% | 96% | 89.5% | 105% | 105% | 101% | 88.9% | 106% | 103% | 113% | 86.9% | 98.6% | 108% | 90.7% | 91.4% | 97.6% | 95.3% | 91.7% | 102% | 104% | 100% | 96.4% | 100% | 91.6% | 96.9% | > 10 µM | > 10 µM | > 10 µM | > 10 µM | > 10 µM | 0 | 0 | 0.6 | 0 | 0
